Data on 21 compounds can be found in patent US9701664B2, “Fused 1,4-dihydrodioxin derivatives as inhibitors of heat shock transcription factor 1” (Cancer Research Technology Limited, priority 2013, dated 2017).

The test deals with HSP72 in SK-OV-3 cells. As to the kind of experiment: Cell-based ELISA (Cellisa) assay, SK-OV-3 cells: inhibition of 17-AAG-induced HSP72. The following applies: Homo sapiens; SK-OV-3 cells (Examples 169-218). As for the experimental part:
U2OS cells (5-8×10^4 cells/mL) or SK-OV-3 cells (5-8×10^4 cells/mL) were seeded into 96-well plates and incubated at 37° C. for 48 h. Compounds were then added at a range of concentrations and incubated for 1 h before addition of 17-AAG (250 nM). Cells were then incubated for 18 h. The medium was removed washed 2× with PBS and cells were then fixed with fixing solution (4% paraformaldehyde, 0.3% TritonX-100 in PBS) for 30 min at 4° C. The plates were then washed 2× with PBS before blocking with 5% milk for 30 min at 37° C. After washing the plates 4× with 0.1% Tween-20/deionised water, HSP72 antibody (SPA-810, Enzo Life) was added for 1.5 h at 37° C. Following 4× washes, the plates were incubated with europium-labelled anti-mouse antibody (0.6 ug/ml) in Delfia assay buffer (Perkin Elmer) for 1 h at 37° C. After washing the plates, Delfia enhancement solution was added, shaken for 10 min before reading in the Envision plate reader (Perkin-Elmer) with excitation at 340 nm and emission at 615 nm. The plates were washed again before protein determination using the bicinchoninic acid assay (BCA assay, Pierce Biotechnology). The europium counts were normalised for the amount of protein in each well. The 50% inhibitory concentration value of the compound was then calculated.
Background: In an ELISA, binding on a coated surface is turned into a signal by an enzyme label.

Regarding `CC1CN(Cc2ccc3cc(C(=O)Nc4cc(NC(=O)c5ccc6c(c5)OCCO6)ccc4F)ccc3n2)C1` [Example 182, N-(5-(2,3-dihydrobenzo[b][1,4]dioxine-6-carboxamido)-2-fluorophenyl)-2-((3-methylazetidin-1-yl)methyl)quinoline-6-carboxamide], inhibition was half-maximal at 0.232 µM (IC50).

`CC1(C)CN(Cc2ccc3cc(C(=O)Nc4cc(NC(=O)c5ccc6c(c5)OCCO6)ccc4F)ccc3n2)C1` [Example 183, N-(5-(2,3-dihydrobenzo[b][1,4]dioxine-6-carboxamido)-2-fluorophenyl)-2-((3,3-dimethylazetidin-1-yl)methyl)quinoline-6-carboxamide] registered an IC50 of 0.131 µM.

`CCN1CCCN(Cc2ccc3cc(C(=O)Nc4cc(NC(=O)c5ccc6c(c5)OCCO6)ccc4F)ccc3n2)CC1` [Example 184, N-(5-(2,3-dihydrobenzo[b][1,4]dioxine-6-carboxamido)-2-fluorophenyl)-2-((4-ethyl-1,4-diazepan-1-yl)methyl)quinoline-6-carboxamide] gave an IC50 of 0.06 µM.

`CC(C)N1CCN(Cc2ccc3cc(C(=O)Nc4cc(NC(=O)c5ccc6c(c5)OCCO6)ccc4F)ccc3n2)CC1` [Example 185, N-(5-(2,3-dihydrobenzo[b][1,4]dioxine-6-carboxamido)-2-fluorophenyl)-2-((4-isopropylpiperazin-1-yl)methyl)quinoline-6-carboxamide]: the IC50 is 0.137 µM.

Compound `O=C(Nc1ccc(F)c(NC(=O)c2ccc3nc(OCCCN4CCCCC4)ccc3c2)c1)c1ccc2c(c1)OCCO2` [Example 186, N-(5-(2,3-dihydrobenzo[b][1,4]dioxine-6-carboxamido)-2-fluorophenyl)-2-(3-(piperidin-1-yl)propoxy)quinoline-6-carboxamide] came in with an IC50 of 0.013 µM.

For the compound `O=C(Nc1ccc(F)c(NC(=O)c2ccc3nc(OCCCN4CCCC4)ccc3c2)c1)c1ccc2c(c1)OCCO2` [Example 187, N-(5-(2,3-dihydrobenzo[b][1,4]dioxine-6-carboxamido)-2-fluorophenyl)-2-(3-(pyrrolidin-1-yl)propoxy)quinoline-6-carboxamide], the IC50 turned out to be 0.01 µM.

As for `O=C(Nc1ccc(F)c(NC(=O)c2ccc3nc(OCCN4CCCC4)ccc3c2)c1)c1ccc2c(c1)OCCO2` [Example 188, N-(5-(2,3-dihydrobenzo[b][1,4]dioxine-6-carboxamido)-2-fluorophenyl)-2-(2-(pyrrolidin-1-yl)ethoxy)quinoline-6-carboxamide], half-maximal inhibition (IC50) required 0.057 µM.

As for `O=C(Nc1ccc(Cl)c(NC(=O)c2ccc3nc(OCCCN4CCCCC4)ccc3c2)c1)c1ccc2c(c1)OCCO2` [Example 189, N-(2-chloro-5-(2,3-dihydrobenzo[b][1,4]dioxine-6-carboxamido)phenyl)-2-(3-(piperidin-1-yl)propoxy)quinoline-6-carboxamide], half-maximal inhibition (IC50) was put at 0.027 µM.

As for `CC(C)(C)N1CCN(Cc2ccc3cc(C(=O)Nc4cc(NC(=O)c5ccc6c(c5)OCCO6)ccc4Cl)ccc3n2)CC1` [Example 191, 2-((4-(tert-butyl)piperazin-1-yl)methyl)-N-(2-chloro-5-(2,3 dihydrobenzo[b][1,4]dioxine-6-carboxamido)phenyl)quinoline-6-carboxamide], half-maximal inhibition (IC50) was put at 0.134 µM.

Take `O=C(Nc1ccc(Cl)c(NC(=O)c2ccc3nc(CN4CCNCC4)ccc3c2)c1)c1ccc2c(c1)OCCO2` [Example 192, N-(2-chloro-5-(2,3-dihydrobenzo[b][1,4]dioxine-6-carboxamido)phenyl)-2-(piperazin-1-ylmethyl)quinoline-6-carboxamide]: half-maximal inhibition (IC50) was put at 0.128 µM.

Consider `O=C(Nc1ccc(Cl)c(NC(=O)c2ccc3nc(CN4CCN(C5CC5)CC4)ccc3c2)c1)c1ccc2c(c1)OCCO2` [Example 194, N-(2-chloro-5-(2,3-dihydrobenzo[b][1,4]dioxine-6-carboxamido)phenyl)-2-((4-cyclopropylpiperazin-1-yl)methyl)quinoline-6-carboxamide], for which it took 0.213 µM to reach half-maximal inhibition (IC50).

Take `CN1CCN(Cc2ccc3cc(C(=O)Nc4cc(NC(=O)c5ccc6c(c5)OCCO6)ccc4Cl)ccc3n2)CC1` [Example 195, N-(2-chloro-5-(2,3-dihydrobenzo[b][1,4]dioxine-6-carboxamido)phenyl)-2-((4-methylpiperazin-1-yl)methyl)quinoline-6-carboxamide]: the IC50 turned out to be 0.066 µM.

`CCN1CCN(Cc2ccc3cc(C(=O)Nc4cc(NC(=O)c5ccc6c(c5)OCCO6)ccc4Cl)ccc3n2)CC1` [Example 196, N-(2-chloro-5-(2,3-dihydrobenzo[b][1,4]dioxine-6-carboxamido)phenyl)-2-((4-ethylpiperazin-1-yl)methyl)quinoline-6-carboxamide] yielded an IC50 of 0.048 µM.

On to `CC(C)N1CCN(Cc2ccc3cc(C(=O)Nc4cc(NC(=O)c5ccc6c(c5)OCCO6)ccc4Cl)ccc3n2)CC1` [Example 197, N-(2-chloro-5-(2,3-dihydrobenzo[b][1,4]dioxine-6-carboxamido)phenyl)-2-((4-isopropylpiperazin-1-yl)methyl)quinoline-6-carboxamide], for which the IC50 was determined as 0.043 µM.

In turn, `O=C(Nc1ccc(Cl)c(NC(=O)c2ccc3nc(CN4CCCC4)ccc3c2)c1)c1ccc2c(c1)OCCO2` [Example 198, N-(2-chloro-5-(2,3-dihydrobenzo[b][1,4]dioxine-6-carboxamido)phenyl)-2-(pyrrolidin-1-ylmethyl)quinoline-6-carboxamide] gave an IC50 of 0.173 µM.

As for `O=C(Nc1ccc(Cl)c(NC(=O)c2ccc3nc(CN4CCC4)ccc3c2)c1)c1ccc2c(c1)OCCO2` [Example 199, 2-(azetidin-1-ylmethyl)-N-(2-chloro-5-(2,3-dihydrobenzo[b][1,4]dioxine-6-carboxamido)phenyl)quinoline-6-carboxamide], the IC50 amounted to 0.085 µM.

In turn, `CC1CN(Cc2ccc3cc(C(=O)Nc4cc(NC(=O)c5ccc6c(c5)OCCO6)ccc4Cl)ccc3n2)C1` [Example 200, N-(2-chloro-5-(2,3-dihydrobenzo[b][1,4]dioxine-6-carboxamido)phenyl)-2-((3-methylazetidin-1-yl)methyl)quinoline-6-carboxamide] yielded an IC50 of 0.084 µM.

For the compound `CC1(C)CN(Cc2ccc3cc(C(=O)Nc4cc(NC(=O)c5ccc6c(c5)OCCO6)ccc4Cl)ccc3n2)C1` [Example 201, N-(2-chloro-5-(2,3-dihydrobenzo[b][1,4]dioxine-6-carboxamido)phenyl)-2-((3,3-dimethylazetidin-1-yl)methyl)quinoline-6-carboxamide], it took 0.083 µM to reach half-maximal inhibition (IC50).

Compound `Cc1ccc(NC(=O)c2ccc3c(c2)OCCO3)cc1NC(=O)c1ccc2nc(CN3CCN(C(C)C)CC3)ccc2c1` [Example 202, N-(5-(2,3-dihydrobenzo[b][1,4]dioxine-6-carboxamido)-2-methylphenyl)-2-((4-isopropylpiperazin-1-yl)methyl)quinoline-6-carboxamide] showed an IC50 of 0.061 µM.

With `Cc1ccc(NC(=O)c2ccc3c(c2)OCCO3)cc1NC(=O)c1ccc2nc(CN3CCC3)ccc2c1` [Example 203, 2-(azetidin-1-ylmethyl)-N-(5-(2,3-dihydrobenzo[b][1,4]dioxine-6-carboxamido)-2-methylphenyl)quinoline-6-carboxamide], the half-inhibitory concentration (IC50) turned out to be 0.023 µM.

The compound `CCN1CCN(Cc2ccc3cc(C(=O)Nc4cc(NC(=O)c5ccc6c(c5)OCCO6)ccc4C)ccc3n2)CC1` [Example 204, N-(5-(2,3-dihydrobenzo[b][1,4]dioxine-6-carboxamido)-2-methylphenyl)-2-((4-ethylpiperazin-1-yl)methyl)quinoline-6-carboxamide] returned an IC50 of 0.056 µM.

By IC50 is commonly meant the midpoint of a concentration-inhibition curve. Higher therefore signals weaker potency.
